Measurements reported in EP0333831B1, “USE OF METALLOPORPHYRINS TO REVERSE THE TOXIC EFFECT OF TUMOR THERAPY” (priority 1987, dated 1989).

Columns and labels:
Type in all cases: in vivo, Sprague-Dawley rats
cytochrome P-450 = assay: hepatic microsomal cytochrome P-450 content in rats treated with doxorubicin, with or without SnPP
Method: (§1) The efficacy of the products of the invention for their newly discovered utility was established by experiments with three groups of male Sprague-Dawley rats (males, 150-200 grams, 16 per group). The rats were maintained on ad lib water and powdered rat chow (Purina) during the experiments. Group A was untreated, Group B was treated subcutaneously with doxorubicin alone on day 0, and Group C was treated with SnPP one day prior to doxorubicin which was administered on day 0.
(§2) The animals utilized in the tests were acclimated in metabolic cages maintained in a controlled environment with a 12h/12h light/dark cycle.
(§3) The compositions for parenteral administration were freshly prepared for each injection by addition of 0.4 N NaOH (20% v/v) to prepare a solution at pH 12, adjusted to pH 7.5 with 1 NHCl and made to final volume with 0.9% saline. The dosage level per injection was 50 µmol/kg b.w. Control animals were administered an equivalent amount of saline.
(§4) Animals were deprived of food but allowed free access to water for 16 hours prior to sacrifice. […] Cytochrome P-450 content was determined by the methods of Omura and Sato [J. Biol. Chem., 239: 2379 (1966) and 239: 2370 (1966)], and protein concentration by the method of Lowry et al [J. Biol. Chem., 193 265 (1951)] using crystalline bovine serum albumin as standard. […]

microsomal heme = assay: hepatic microsomal heme content in rats treated with doxorubicin, with or without SnPP
Method: as §1, §2, §3, §4

heme metabolism = system: heme metabolism
Method: as §1
It will be seen that the increase in heme oxygenase activity and decrease in ALA synthetase activity and microsomal content of cytochrome P-450 were at a maximum on day 2 and returned to normal by day 10.
as §2, §3
Animals were deprived of food but allowed free access to water for 16 hours prior to sacrifice. Livers were perfused in situ with ice-cold saline and homogenized in tris-HCL (0.01 M, pH 7.4) buffer containing sucrose (0.25 M). Homogenates (25% w/v) were centrifuged at 9000 g for 20 min, and the resulting mitochondrial pellet was used for the assay of ALA-synthetase activity. The 9000 xg supernatant was centrifuged at 105,000 xg for 60 min in a Beckman L5-50 ultracentrifuge. The microsomal pellet was resuspended in a minimum volume of potassium phosphate buffer (0.1 M, pH 7.4) and the cytosol was used as a source of biliverdin reductase. Cytochrome P-450 content was determined by the methods of Omura and Sato [J. Biol. Chem., 239: 2379 (1966) and 239: 2370 (1966)], and protein concentration by the method of Lowry et al [J. Biol. Chem., 193 265 (1951)] using crystalline bovine serum albumin as standard. […]

hepatic heme oxygenase = hepatic heme oxygenase activity in rats treated with doxorubicin, with or without SnPP; conditions: SnPP (50 µmol/kg b.w.) one day prior to doxorubicin 10 mg/kg b.w.; compared to the group treated with doxorubicin alone
Method: as §1, §2, §3, §4

ALA synthetase = assay: hepatic ALA synthetase activity in rats treated with doxorubicin, with or without SnPP; conditions: SnPP (50 µmol/kg b.w.) one day prior to doxorubicin 10 mg/kg b.w.; compared to the group treated with doxorubicin alone
Method: as §1, §2, §3, §4

[1] = doxorubicin 10 mg/kg b.w. subcutaneous, measured 2 days after administration, vs untreated, P < 0.05
[2] = SnPP one day prior to doxorubicin 10 mg/kg b.w., compared to the untreated group

Row | decrease in hepatic heme oxygenase activity (hepatic heme oxygenase) [%] | increase in hepatic ALA-synthetase activity (ALA synthetase) [%] | Molecule | decrease in the microsomal content of cytochrome P-450 (cytochrome P-450; [1]) [%] | decrease in the microsomal content of heme (microsomal heme; [1]) [%] | time of maximum increase in heme oxygenase activity and decrease in ALA synthetase activity and microsomal content of cytochrome P-450 (heme metabolism; rat, in vivo) [days] | time of return to normal of heme oxygenase activity, ALA synthetase activity and microsomal cytochrome P-450 (heme metabolism; rat, in vivo) [days] | levels of hepatic cytochrome P-450 (cytochrome P-450; [2]) | levels of microsomal heme (microsomal heme; [2]) | prevention of doxorubicin-induced variations in heme metabolism (heme metabolism; metalloporphyrin administered one day prior to doxorubicin)
1 | – | – | COc1cccc2c1C(=O)c1c(O)c3c(c(O)c1C2=O)C[C@@](O)(C(=O)CO)C[C@@H]3O[C@H]1C[C@H](N)[C@H](O)[C@H](C)O1 [doxorubicin, reference compound] | 18 | 45 | 2 | ≤ 10 | – | – | –
2 | 92 | 35 | tin protoporphyrin-IX [SnPP] | – | – | – | – | substantially identical to those in the untreated group | substantially identical to those in the untreated group | prevented the occurrence of these variations in heme metabolism
